# PubChem BioAssay AID248 (DTP/NCI, 2004)
# Where “and” joins values, the source holds several entries; their conditions need not be identical. Equal entries are not always repeated. Inconclusive results and toxic doses are left out.
# System: L1210 leukemia ip in BDF1 mice, survival T/C
# Assay: NCI In Vivo Anticancer Drug Screen. Data for tumor model L1210 Leukemia (intraperitoneal) in B6D2F1 (BDF1) mice
# Conditions: endpoint: mean survival time, higher = longer survival
# In short: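 Value reflects the ratio of survival in compound-treated mice to survival in vehicle-treated controls, with both groups carrying the same transplanted tumor.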
# [1] = dose: 100.0 mg/kg/injection, schedule: Q01DX009 (ip), vehicle: Klucel (hydroxypropylcellulose) (HPC)
# [2] = dose: 200.0 mg/kg/injection, schedule: Q01DX009 (ip), vehicle: Klucel (hydroxypropylcellulose) (HPC)
# [3] = dose: 400.0 mg/kg/injection, schedule: Q01DX009 (ip), vehicle: Klucel (hydroxypropylcellulose) (HPC)
# [4] = dose: 100.0 mg/kg/injection, schedule: Q04DX003 (ip), vehicle: saline with Tween-80
# [5] = dose: 200.0 mg/kg/injection, schedule: Q04DX003 (ip), vehicle: saline with Tween-80
# [6] = dose: 400.0 mg/kg/injection, schedule: Q04DX003 (ip), vehicle: saline with Tween-80
# [7] = dose: 100.0 mg/kg/injection, schedule: Q04DX003 (ip), vehicle: Klucel (hydroxypropylcellulose) (HPC)
# [8] = dose: 200.0 mg/kg/injection, schedule: Q04DX003 (ip), vehicle: Klucel (hydroxypropylcellulose) (HPC)
# [9] = dose: 400.0 mg/kg/injection, schedule: Q04DX003 (ip), vehicle: Klucel (hydroxypropylcellulose) (HPC)
structure (smiles),measurement,setting,value
O[C@H](CN1CC1)[C@@H](O)CN1CC1,T/C,"dose: 0.05 mg/kg/injection, schedule: Q01DX010 (oral), vehicle: other",114 % of control
same,T/C,"dose: 0.05 mg/kg/injection, schedule: Q01DX010 (oral), vehicle: saline",111 % of control
same,T/C,"dose: 0.05 mg/kg/injection, schedule: Q01DX Z (ip), vehicle: methylcellulose (MC)",154 % of control
same,T/C,"dose: 0.1 mg/kg/injection, schedule: Q01DX010 (oral), vehicle: saline",118 % of control
same,T/C,"dose: 0.1 mg/kg/injection, schedule: Q01DX Z (ip), vehicle: methylcellulose (MC)",87 % of control
same,T/C,"dose: 0.1 mg/kg/injection, schedule: Q01DX Z (oral), vehicle: saline",101 % of control
same,T/C,"dose: 0.13 mg/kg/injection, schedule: Q01DX009 (ip), vehicle: saline",187 % of control and 192 % of control
same,T/C,"dose: 0.2 mg/kg/injection, schedule: Q01DX010 (oral), vehicle: other",157 % of control
same,T/C,"dose: 0.25 mg/kg/injection, schedule: Q01DX009 (ip), vehicle: saline",204 % of control and 206 % of control
same,T/C,"dose: 0.3 mg/kg/injection, schedule: Q01DX Z (oral), vehicle: saline",111 % of control
same,T/C,"dose: 0.4 mg/kg/injection, schedule: Q01DX010 (oral), vehicle: saline",164 % of control
same,T/C,"dose: 0.44 mg/kg/injection, schedule: Q01DX Z (oral), vehicle: saline",172 % of control
same,T/C,"dose: 0.5 mg/kg/injection, schedule: Q01DX009 (ip), vehicle: saline",221 % of control and 257 % of control
same,T/C,"dose: 0.66 mg/kg/injection, schedule: Q01DX Z (oral), vehicle: saline",182 % of control
same,T/C,"dose: 0.8 mg/kg/injection, schedule: Q01DX010 (oral), vehicle: other",88 % of control
same,T/C,"dose: 0.8 mg/kg/injection, schedule: Q01DX010 (oral), vehicle: saline",108 % of control
same,T/C,"dose: 1.0 mg/kg/injection, schedule: Q01DX009 (ip), vehicle: saline",104 % of control and 88 % of control
same,T/C,"dose: 1.0 mg/kg/injection, schedule: Q01DX Z (ip), vehicle: methylcellulose (MC)",121 % of control
same,T/C,"dose: 1.0 mg/kg/injection, schedule: Q01DX Z (oral), vehicle: saline",122 % of control
same,T/C,"dose: 1.5 mg/kg/injection, schedule: Q01DX Z (oral), vehicle: saline",97 % of control
COc1ccc([N+](=O)[O-])cc1NS(=O)(=O)c1ccc(Cl)cc1,T/C,[1],102 % of control
same,T/C,[2],98 % of control
same,T/C,[3],93 % of control
O=C(O)C(=S)Cc1cc(=O)[nH]c(=S)[nH]1,T/C,[4],102 % of control
same,T/C,[5],97 % of control
same,T/C,[6],92 % of control
CC(O)C(Cc1ccccc1)NC(=O)C(=O)NC(Cc1ccccc1)C(C)O (stereo not given),T/C,[7],95 % of control
same,T/C,[8],90 % of control
same,T/C,[9],92 % of control
O=C1NCCCCN1,T/C,[4],100 % of control
same,T/C,[5],100 % of control
same,T/C,[6],101 % of control
Oc1ccccc1C=NCc1ccccc1,T/C,[7],100 % of control
same,T/C,[8],92 % of control
same,T/C,[9],96 % of control
CN(Cc1ccccc1Cl)C(=S)NC1CCCCC1,T/C,[1],92 % of control
same,T/C,[2],93 % of control
same,T/C,[3],93 % of control
CCOCc1nc(NC(C)=O)nc(NC(C)=O)c1-c1ccc(Cl)cc1,T/C,"dose: 75.0 mg/kg/injection, schedule: Q01DX001 (ip), vehicle: saline with Tween-80",100 % of control
same,T/C,"dose: 150.0 mg/kg/injection, schedule: Q01DX001 (ip), vehicle: saline with Tween-80",96 % of control
